# From patent US8084645B2, “4-phenylamino-benzaldoxime derivatives and uses thereof as mitogen-activated protein kinase kinase (MEK) inhibitors” (Chugai Seiyaku Kabushiki Kaisha, priority 2003, dated 2011)
# Read-outs that look alike come from different tables or passages of the source.
# What was measured:
# [1] = system: Human colon cancer cell line HT-29; experiment: Determination of the activity of inhibiting cell proliferation (Cell Counting Kit-8); assay type: cell-based; conditions: HT-29, 96 h, HT29, 2,000 cells/well, incubated four days, read-out: Cell proliferation inhibitory activity (HT29) IC50
# Procedure: Human colon cancer cell line HT-29, obtained from American Type Culture Collection (VA, USA), and human non-small cell lung cancer cell line QG56, obtained from Immuno-Biological Laboratories Co., Ltd., were plated at 2,000 cells/well in a 96-well culture plate, and incubated for four days after addition of a MEK inhibitor of a given concentration.
# [2] = Determination of stability against human liver microsomes; assay type: in vitro ADME; conditions: human liver microsomes 1 mg protein/mL, 2 mM NADPH, pH 7.4, 37 C; read-out: Stability against human liver microsome NADPH+ T1/2
# Procedure: (§1) The enzyme reaction was quenched with three volumes of acetonitrile, and the reaction mixture was centrifuged at 1,500 rpm for ten minutes to provide a supernatant as a sample to be measured. Stability against human liver microsomes was measured using HPLC/MS to determine the compounds in the sample.
# [3] = Determination of stability against mouse liver microsomes; assay type: in vitro ADME; conditions: mouse liver microsomes 1 mg protein/mL, 2 mM NADPH, pH 7.4, 37 C; read-out: Stability against mouse liver microsome NADPH+ T1/2
# Procedure: as §1, with “mouse” for “human”
# [4] = Determination of water solubility (equilibrium stirring method); assay type: physicochemical; conditions: for solubility at 2 h: aqueous buffer, thermodynamic from solid, read-out: Water solubility (LySA PH 6.5)
# Procedure: The vessels were sealed, and the contents were sonicated at room temperature (20° C.) for ten minutes, and then stirred with a stirrer for two hours. After reaching solution equilibrium, the solution was separated with a membrane filter, and the solute concentration was determined using HPLC.
# MEK = MEK (Homo sapiens, UniProt Q02750); experiment: Determination of MEK inhibitory activities (Raf-1 kinase cascade assay, MBP phosphorylation, 33P-ATP)
# Description: The radioisotope used was [γ^33P]-ATP (Amersham Biosciences, K.K.).
# [5] = 50 mM phosphate buffer pH 6.5, room temperature (20 C)
# Chain of MEK (Q02750 whole entry): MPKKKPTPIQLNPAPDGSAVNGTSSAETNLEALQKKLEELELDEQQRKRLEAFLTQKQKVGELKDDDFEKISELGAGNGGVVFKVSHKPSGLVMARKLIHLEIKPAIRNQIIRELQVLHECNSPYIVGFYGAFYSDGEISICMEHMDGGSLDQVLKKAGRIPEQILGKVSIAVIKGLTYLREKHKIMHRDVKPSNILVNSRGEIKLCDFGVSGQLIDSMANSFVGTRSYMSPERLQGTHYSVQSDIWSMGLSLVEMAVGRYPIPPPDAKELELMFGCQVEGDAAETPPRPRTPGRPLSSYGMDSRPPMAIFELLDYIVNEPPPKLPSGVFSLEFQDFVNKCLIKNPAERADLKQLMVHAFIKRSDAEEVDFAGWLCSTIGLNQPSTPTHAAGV
IC50 [1] [nM],half-life [2] [h],half-life [3] [h],"solubility at 2 h ([4]; phosphate buffer, 20 °C, at pH 6.67) [µM]",IC50 (MEK) [nM],"solubility at 2 h ([4]; phosphate buffer, 20 °C, at pH 6.06) [µM]","Water solubility (LySA PH 6.5) [4, 5] [µM]","solubility at 2 h [4, 5] [µM]",SMILES
37,1.51,> 6,162,33,,,,"O=C(NOCCO)c1cc(/C=N/OCC(O)CO)c(F)c(F)c1Nc1ccc(I)cc1F (racemic) [Compound 7, (E)-dl-5-[(2,3-Dihydroxy-propoxyimino)-methyl]-3,4-difluoro-2-(2-fluoro-4-iodo-phenylamino)-N-(2-hydroxy-ethoxy)-benzamide]"
185,1.24,> 6,,150,1470,,,"C#Cc1ccc(Nc2c(C(=O)NOCCO)cc(/C=N/OCC(O)CO)c(F)c2F)c(F)c1 (racemic) [Compound 8, (E)-dl-5-[(2,3-Dihydroxy-propoxyimino)-methyl]-2-(4-ethynyl-2-fluoro-phenylamino)-3,4-difluoro-N-(2-hydroxy-ethoxy)-benzamide]"
< 19.5,,> 6,,37,,15,,"CC(C)(O)CO/N=C/c1cc(C(=O)NOCCO)c(Nc2ccc(I)cc2F)c(F)c1F [Compound 12, (E)-3,4-difluoro-2-(2-fluoro-4-iodophenylamino)-N-(2-hydroxy-ethoxy)-5-[(2-hydroxy-2-methyl-propoxyimino)-methyl]-benzamide]"
38,,0.767,,9.7,,,14,"CNC(=O)CCO/N=C/c1cc(C(=O)NOCCO)c(Nc2ccc(I)cc2F)c(F)c1F [Compound 14, (E)-3,4-difluoro-2-(2-fluoro-4-iodo-phenylamino)-N-(2-hydroxy-ethoxy)-5-[(2-methylcarbamoyl-ethoxyimino)-methyl]-benzamide]"
920,,> 6,,287,,,462,"O=C(NOCCO)c1cc(/C=N/OCCN2CCCCC2)c(F)c(F)c1Nc1ccc(I)cc1F [Compound 17, (E)-3,4-difluoro-2-(2-fluoro-4-iodo-phenylamino)-N-(2-hydroxy-ethoxy)-5-[(2-piperidin-1-yl-ethoxyimino)-methyl]-benzamide]"
88,,,,85,,,,"CNCCO/N=C/c1cc(C(=O)NOCCO)c(Nc2ccc(I)cc2F)c(F)c1F [Compound 23, (E)-3,4-difluoro-2-(2-fluoro-4-iodo-phenylamino)-N-(2-hydroxy-ethoxy)-5-[(2-methylamino-ethoxyimino)-methyl]-benzamide]"
165,,,,576,,,,"O=C(NOCCO)c1cc(/C=N/OCc2cnc[nH]2)c(F)c(F)c1Nc1ccc(I)cc1F [Compound 29, (E)-3,4-difluoro-2-(2-fluoro-4-iodo-phenylamino)-N-(2-hydroxy-ethoxy)-5-[(3H-imidazol-4-ylmethoxyimino)-methyl]-benzamide]"
790,,> 6,,88,,,< 31.3,"O=C(NOCCO)c1cc(/C=N/OCc2ccncc2)c(F)c(F)c1Nc1ccc(I)cc1F [Compound 30, (E)-3,4-difluoro-2-(2-fluoro-4-iodo-phenylamino)-N-(2-hydroxy-ethoxy)-5-[(pyridin-4-ylmethoxyimino)-methyl]-benzamide]"
463,,,,335,,,,"CO/N=C/c1cc(C(=O)NOCCO)c(Nc2ccc(I)cc2F)c(F)c1F [Compound 31, (E)-3,4-difluoro-2-(2-fluoro-4-iodo-phenylamino)-N-(2-hydroxy-ethoxy)-5-[methoxyimino-methyl]-benzamide]"
84,,,,1250,,,,"CC(C)O/N=C/c1cc(C(=O)NOCCO)c(Nc2ccc(I)cc2F)c(F)c1F [Compound 32, (E)-3,4-difluoro-2-(2-fluoro-4-iodo-phenylamino)-N-(2-hydroxy-ethoxy)-5-[isopropoxyimino-methyl]-benzamide]"
143,,,,69,,,< 7.8,"CC(C)(CO)CO/N=C/c1cc(C(=O)NOCCO)c(Nc2ccc(I)cc2F)c(F)c1F [Compound 34, (E)-3,4-difluoro-2-(2-fluoro-4-iodo-phenylamino)-5-[(E)-(3-hydroxy-2,2-dimethyl-propoxyimino)-methyl]-N-(2-hydroxy-ethoxy)-benzamide]"
203,,,,30.4,,,< 7.8,"O=C(NOCCO)c1cc(/C=N/OCC2(CO)CC2)c(F)c(F)c1Nc1ccc(I)cc1F [Compound 35, (E)-3,4-difluoro-2-(2-fluoro-4-iodo-phenylamino)-N-(2-hydroxy-ethoxy)-5-[(1-hydroxymethyl-cyclopropylmethoxyimino)-methyl]-benzamide]"
476,,,,395,,,,"COCCO/N=C/c1cc(C(=O)NOCCO)c(Nc2ccc(I)cc2F)c(F)c1F [Compound 38, (E)-3,4-difluoro-2-(2-fluoro-4-iodo-phenylamino)-N-(2-hydroxy-ethoxy)-5-[(2-methoxy-ethoxyimino)-methyl]-benzamide]"
114,,,,232,,,< 7.8,"CSCCO/N=C/c1cc(C(=O)NOCCO)c(Nc2ccc(I)cc2F)c(F)c1F [Compound 39, (E)-3,4-difluoro-2-(2-fluoro-4-iodo-phenylamino)-N-(2-hydroxy-ethoxy)-5-[(2-methylsulfanyl-ethoxyimino)-methyl]-benzamide]"
27,1.49,> 6,,67,,,,"CS(=O)(=O)CCO/N=C/c1cc(C(=O)NOCCO)c(Nc2ccc(I)cc2F)c(F)c1F [Compound 40, (E)-3,4-difluoro-2-(2-fluoro-4-iodo-phenylamino)-N-(2-hydroxy-ethoxy)-5-[(2-methanesulfonyl-ethoxyimino)-methyl]-benzamide]"
103,,,,107,,,,"O=C(NOCCO)c1cc(/C=N/OCCOCCO)c(F)c(F)c1Nc1ccc(I)cc1F [Compound 46, (E)-3,4-difluoro-2-(2-fluoro-4-iodo-phenylamino)-N-(2-hydroxy-ethoxy)-5-{[2-(2-hydroxy-ethoxy)-ethoxyimino]-methyl}-benzamide]"
1.9,,,,17,,,< 7.8,"CS(=O)(=O)CCO/N=C\c1cc(C(=O)NOCCO)c(Nc2ccc(I)cc2F)c(F)c1F [Compound 53, (Z)-3,4-Difluoro-2-(2-fluoro-4-iodo-phenylamino)-N-(2-hydroxy-ethoxy)-5-[(2-methanesulfonyl-ethoxyimino)-methyl]-benzamide]"
17,,,,50,,,69,"O=C(NOCCO)c1cc(/C=N\OCCN2CCNC2=O)c(F)c(F)c1Nc1ccc(I)cc1F [Compound 59, (Z)-3,4-difluoro-2-(2-fluoro-4-iodo-phenylamino)-N-(2-hydroxy-ethoxy)-5-{[2-(2-oxo-imidazolidin-1-yl)-ethoxyimino]-methyl}-benzamide]"
20,,,,78,,,,"O=C(NOCCO)c1cc(/C=N\OCCN2CCCC2=O)c(F)c(F)c1Nc1ccc(I)cc1F [Compound 60, (Z)-3,4-difluoro-2-(2-fluoro-4-iodo-phenylamino)-N-(2-hydroxy-ethoxy)-5-{[2-(2-oxo-pyrrolidin-1-yl)-ethoxyimino]-methyl}-benzamide]"

SMILES,IC50 [1] [nM],half-life [2] [h],half-life [3] [h],"solubility at 2 h ([4]; phosphate buffer, 20 °C, at pH 6.67) [µM]",IC50 (MEK) [nM],"solubility at 2 h ([4]; phosphate buffer, 20 °C, at pH 6.06) [µM]","Water solubility (LySA PH 6.5) [4, 5] [µM]","solubility at 2 h [4, 5] [µM]"
"CC(C)(O)CCO/N=C/c1cc(C(=O)NOCCO)c(Nc2ccc(I)cc2F)c(F)c1F [Compound 33, (E)-3,4-difluoro-2-(2-fluoro-4-iodo-phenylamino)-N-(2-hydroxy-ethoxy)-5-[(3-hydroxy-3-methyl-butoxyimino)-methyl]-benzamide]",275,,,,37.5,,,< 7.8
"O=C(NOCCO)c1cc(/C=N/OCCCCO)c(F)c(F)c1Nc1ccc(I)cc1F [Compound 36, (E)-3,4-difluoro-2-(2-fluoro-4-iodo-phenylamino)-5-[(4-hydroxy-butoxyimino)-methyl]-N-(2-hydroxy-ethoxy)-benzamide]",365,,,,45,,,< 7.8
"COC(C)(C)CCO/N=C/c1cc(C(=O)NOCCO)c(Nc2ccc(I)cc2F)c(F)c1F [Compound 37, (E)-3,4-difluoro-2-(2-fluoro-4-iodo-phenylamino)-N-(2-hydroxy-ethoxy)-5-[(3-methoxy-3-methyl-butoxyimino)-methyl]-benzamide]",600,,,,287,,,
"CC(C)(O)CO/N=C\c1cc(C(=O)NOCCO)c(Nc2ccc(I)cc2F)c(F)c1F [Compound 51, (Z)-3,4-Difluoro-2-(2-fluoro-4-iodo-phenylamino)-N-(2-hydroxy-ethoxy)-5-[(2-hydroxy-2-methyl-propoxyimino)-methyl]-benzamide]",6,,,,21,,,< 7.8
